Results from US20250230193A1, “CYCLIC COMPOUND HAVING SELECTIVE KRAS INHIBITORY EFFECT ON HRAS AND NRAS” (CHUGAI SEIYAKU KABUSHIKI KAISHA, priority 2022, published 2025).
*1 amine or outer side, *2 acyl side, *3 side chain or, on linkers, in order; H or OH if unused. Where a SMILES comes first, the peptide text is derived from it. Bridges are numbered along the chain shown (N, C = ends). [ ]: non-standard residue; d: D form. The star is where a group is joined. hPhe(3,5-F2-4-CF3) = N[C@@H](CCc1cc(F)c(C(F)(F)F)c(F)c1)C(=O)O; hPhe(3-Cl-4-CF3) = N[C@@H](CCc1ccc(C(F)(F)F)c(Cl)c1)C(=O)O; NPrPhe(4-CF3) = CCCN[C@@H](Cc1ccc(C(F)(F)F)cc1)C(=O)O; NMeAbu(4,4,4-F3) = CN[C@@H](CC(F)(F)F)C(=O)O; X16 = O=C([C@@H](N[*:1])C1CC(F)(F)C1)[*:2]; NMeGly(cPent) = CN[C@H](C(=O)O)C1CCCC1; Ac4c(3,3-F2) = NC1(C(=O)O)CC(F)(F)C1; Nva(3-Et) = CCC(CC)[C@H](N)C(=O)O; αMeF = C[C@](N)(Cc1ccccc1)C(=O)O; Gly(N-propargyl) = C#CCNCC(=O)O; NMeD = CN[C@@H](CC(=O)O)C(=O)O; Ac4c(3-oxa) = NC1(C(=O)O)COC1; NMeL = CN[C@@H](CC(C)C)C(=O)O; X51 = O=C(CN(CCF)[*:1])[*:2]; αMeS = C[C@](N)(CO)C(=O)O; Morpholide = C1CN(*)CCO1; NAllylGly = C=CCNCC(=O)O; Ac5c = NC1(C(=O)O)CCCC1; Sar = CNCC(=O)O; tBu = CC(C)(C)*; Allyl = C=CC*

Legend:
[1] = target: GDP-bound HRAS wild-type protein (Homo sapiens, UniProt P01112); experiment: Binding to HRAS by surface plasmon resonance (SPR), Single Cycle Kinetics; settings: KD ratio HRAS/KRAS, SPR
[2] = target: GDP-bound NRAS wild-type protein (Homo sapiens, UniProt P01111); experiment: Binding to NRAS by surface plasmon resonance (SPR), Single Cycle Kinetics; settings: KD ratio NRAS/KRAS, SPR
Sequence of GDP-bound NRAS wild-type protein (P01111 whole entry): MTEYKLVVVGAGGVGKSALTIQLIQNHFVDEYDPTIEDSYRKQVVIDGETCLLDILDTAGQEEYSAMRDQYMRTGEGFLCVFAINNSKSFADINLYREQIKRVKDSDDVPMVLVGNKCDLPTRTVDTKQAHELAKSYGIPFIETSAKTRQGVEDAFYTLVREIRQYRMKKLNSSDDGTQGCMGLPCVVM

Sequence of GDP-bound HRAS wild-type protein (P01112 whole entry): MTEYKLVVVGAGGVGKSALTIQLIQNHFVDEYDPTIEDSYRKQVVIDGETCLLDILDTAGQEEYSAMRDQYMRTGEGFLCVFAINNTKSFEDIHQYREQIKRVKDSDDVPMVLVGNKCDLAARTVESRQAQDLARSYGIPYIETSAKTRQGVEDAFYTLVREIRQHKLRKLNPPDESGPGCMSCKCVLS

Row | Compound | HRAS/KRAS (ratio of KD value with respect to GDP-bound HRAS wild-type protein to KD value with respect to KRAS) [1] | NRAS/KRAS (ratio of KD value with respect to GDP-bound NRAS wild-type protein to KD value with respect to KRAS) [2]
1 | CCCN1C(=O)CN(C)C(=O)CN(C)C(=O)[C@H]([C@@H](C)CC)NC(=O)[C@H](CC(C)C)N(C)C(=O)C[C@@H](C(=O)N(C)C)N(C)C(=O)[C@H](C2CCCC2)N(C)C(=O)[C@](C)(Cc2ccccc2)NC(=O)[C@@H]2CCCN2C(=O)[C@H](CCc2cc(F)c(C(F)(F)F)c(F)c2)NC(=O)CN(C)C(=O)[C@@H]1Cc1ccc(C(F)(F)F)cc1 [PP0740] ([NMeL]I[Sar][Sar][NPrPhe(4-CF3)][Sar][hPhe(3,5-F2-4-CF3)]P[αMeF][NMeGly(cPent)][NMeD]-NMe2; lactam N-11) | C (A compound having a KD ratio of 0.1 or more and less than 3 is denoted as C) | B (a compound having 3 or more and less than 10 is denoted as B)
2 | CCCN1C(=O)CN(C)C(=O)CN(C)C(=O)[C@H]([C@@H](C)CC)NC(=O)[C@H](CC(C)C)N(C)C(=O)C[C@@H](C(=O)N(C)C)N(C)C(=O)[C@H](C2CCCC2)N(C)C(=O)[C@](C)(COC)NC(=O)[C@@H]2CCCN2C(=O)[C@H](CCc2cc(F)c(C(F)(F)F)c(F)c2)NC(=O)CN(C)C(=O)[C@@H]1Cc1ccc(C(F)(F)F)cc1 [PP0741] ([NMeL]I[Sar][Sar][NPrPhe(4-CF3)][Sar][hPhe(3,5-F2-4-CF3)]P[αMeS](Me)[NMeGly(cPent)][NMeD]-NMe2; lactam N-11) | B (a compound having 3 or more and less than 10 is denoted as B) | B (a compound having 3 or more and less than 10 is denoted as B)
3 | C=CCOC[C@]1(C)NC(=O)[C@@H]2CCCN2C(=O)[C@H](CCc2cc(F)c(C(F)(F)F)c(F)c2)NC(=O)CN(C)C(=O)[C@H](Cc2ccc(C(F)(F)F)cc2)N(CCC)C(=O)CN(C)C(=O)CN(C)C(=O)[C@H]([C@@H](C)CC)NC(=O)[C@H](CC(C)C)N(C)C(=O)C[C@@H](C(=O)N(C)C)N(C)C(=O)[C@H](C2CCCC2)N(C)C1=O [PP0742] ([NMeL]I[Sar][Sar][NPrPhe(4-CF3)][Sar][hPhe(3,5-F2-4-CF3)]P[αMeS](Allyl)[NMeGly(cPent)][NMeD]-NMe2; lactam N-11) | B (a compound having 3 or more and less than 10 is denoted as B) | B (a compound having 3 or more and less than 10 is denoted as B)
4 | CCCN1C(=O)CN(C)C(=O)CN(C)C(=O)[C@H]([C@@H](C)CC)NC(=O)[C@H](CC(C)C)N(C)C(=O)C[C@@H](C(=O)N(C)C)N(C)C(=O)[C@H](C2CCCC2)N(C)C(=O)[C@](C)(COC(C)(C)C)NC(=O)[C@@H]2CCCN2C(=O)[C@H](CCc2cc(F)c(C(F)(F)F)c(F)c2)NC(=O)CN(C)C(=O)[C@@H]1Cc1ccc(C(F)(F)F)cc1 [PP0743] ([NMeL]I[Sar][Sar][NPrPhe(4-CF3)][Sar][hPhe(3,5-F2-4-CF3)]P[αMeS](tBu)[NMeGly(cPent)][NMeD]-NMe2; lactam N-11) | C (A compound having a KD ratio of 0.1 or more and less than 3 is denoted as C) | B (a compound having 3 or more and less than 10 is denoted as B)
5 | CCCN1C(=O)CN(C)C(=O)CN(C)C(=O)[C@H]([C@@H](C)CC)NC(=O)[C@H](CC(C)C)N(C)C(=O)C[C@@H](C(=O)N(C)C)N(C)C(=O)[C@H](C2CCCC2)N(C)C(=O)C2(COC2)NC(=O)[C@@H]2CCCN2C(=O)[C@H](CCc2cc(F)c(C(F)(F)F)c(F)c2)NC(=O)CN(C)C(=O)[C@@H]1Cc1ccc(C(F)(F)F)cc1 [PP0744] ([NMeL]I[Sar][Sar][NPrPhe(4-CF3)][Sar][hPhe(3,5-F2-4-CF3)]P[Ac4c(3-oxa)][NMeGly(cPent)][NMeD]-NMe2; lactam N-11) | B (a compound having 3 or more and less than 10 is denoted as B) | B (a compound having 3 or more and less than 10 is denoted as B)
6 | CCCN1C(=O)CN(C)C(=O)CN(C)C(=O)[C@H]([C@@H](C)CC)NC(=O)[C@H](CC(C)C)N(C)C(=O)C[C@@H](C(=O)N(C)C)N(C)C(=O)[C@H](C2CCCC2)N(C)C(=O)C2(CC(F)(F)C2)NC(=O)[C@@H]2CCCN2C(=O)[C@H](CCc2cc(F)c(C(F)(F)F)c(F)c2)NC(=O)CN(C)C(=O)[C@@H]1Cc1ccc(C(F)(F)F)cc1 [PP0745] ([NMeL]I[Sar][Sar][NPrPhe(4-CF3)][Sar][hPhe(3,5-F2-4-CF3)]P[Ac4c(3,3-F2)][NMeGly(cPent)][NMeD]-NMe2; lactam N-11) | C (A compound having a KD ratio of 0.1 or more and less than 3 is denoted as C) | B (a compound having 3 or more and less than 10 is denoted as B)
7 | CCCN1C(=O)CN(C)C(=O)CN(C)C(=O)[C@H]([C@@H](C)CC)NC(=O)[C@H](CC(C)C)N(C)C(=O)C[C@@H](C(=O)N(C)C)N(C)C(=O)[C@H](CC(F)(F)F)N(C)C(=O)C2(CCCC2)NC(=O)[C@@H]2CCCN2C(=O)[C@H](CCc2cc(F)c(C(F)(F)F)c(F)c2)NC(=O)CN(C)C(=O)[C@@H]1Cc1ccc(C(F)(F)F)cc1 [PP0746] ([NMeL]I[Sar][Sar][NPrPhe(4-CF3)][Sar][hPhe(3,5-F2-4-CF3)]P[Ac5c][NMeAbu(4,4,4-F3)][NMeD]-NMe2; lactam N-11) | C (A compound having a KD ratio of 0.1 or more and less than 3 is denoted as C) | B (a compound having 3 or more and less than 10 is denoted as B)
8 | CCCN1C(=O)CN(C)C(=O)CN(C)C(=O)[C@H](C(CC)CC)NC(=O)[C@H](CC(C)C)N(C)C(=O)C[C@@H](C(=O)N(C)C)N(C)C(=O)[C@H](C2CCCC2)N(C)C(=O)C2(CCCC2)NC(=O)[C@@H]2CCCN2C(=O)[C@H](CCc2cc(F)c(C(F)(F)F)c(F)c2)NC(=O)CN(C)C(=O)[C@@H]1Cc1ccc(C(F)(F)F)cc1 [PP0747] ([NMeL][Nva(3-Et)][Sar][Sar][NPrPhe(4-CF3)][Sar][hPhe(3,5-F2-4-CF3)]P[Ac5c][NMeGly(cPent)][NMeD]-NMe2; lactam N-11) | C (A compound having a KD ratio of 0.1 or more and less than 3 is denoted as C) | B (a compound having 3 or more and less than 10 is denoted as B)
9 | CCCN1C(=O)CN(C)C(=O)CN(C)C(=O)[C@H](C2CC(F)(F)C2)NC(=O)[C@H](CC(C)C)N(C)C(=O)C[C@@H](C(=O)N(C)C)N(C)C(=O)[C@H](C2CCCC2)N(C)C(=O)C2(CCCC2)NC(=O)[C@@H]2CCCN2C(=O)[C@H](CCc2cc(F)c(C(F)(F)F)c(F)c2)NC(=O)CN(C)C(=O)[C@@H]1Cc1ccc(C(F)(F)F)cc1 [PP0748] ([NMeL][X16][Sar][Sar][NPrPhe(4-CF3)][Sar][hPhe(3,5-F2-4-CF3)]P[Ac5c][NMeGly(cPent)][NMeD]-NMe2; lactam N-11) | B (a compound having 3 or more and less than 10 is denoted as B) | B (a compound having 3 or more and less than 10 is denoted as B)
10 | C=CCN1CC(=O)N(C)CC(=O)N(CCC)[C@@H](Cc2ccc(C(F)(F)F)cc2)C(=O)N(C)CC(=O)N[C@@H](CCc2ccc(C(F)(F)F)c(Cl)c2)C(=O)N2CCC[C@H]2C(=O)NC2(CCCC2)C(=O)N(C)[C@@H](C2CCCC2)C(=O)N(C)[C@H](C(=O)N2CCOCC2)CC(=O)N(C)[C@@H](CC(C)C)C(=O)N[C@@H]([C@@H](C)CC)C1=O [PP0749] ([NMeL]I[NAllylGly][Sar][NPrPhe(4-CF3)][Sar][hPhe(3-Cl-4-CF3)]P[Ac5c][NMeGly(cPent)][NMeD]-Morpholide; lactam N-11) | C (A compound having a KD ratio of 0.1 or more and less than 3 is denoted as C) | B (a compound having 3 or more and less than 10 is denoted as B)
11 | C#CCN1CC(=O)N(C)CC(=O)N(CCC)[C@@H](Cc2ccc(C(F)(F)F)cc2)C(=O)N(C)CC(=O)N[C@@H](CCc2ccc(C(F)(F)F)c(Cl)c2)C(=O)N2CCC[C@H]2C(=O)NC2(CCCC2)C(=O)N(C)[C@@H](C2CCCC2)C(=O)N(C)[C@H](C(=O)N2CCOCC2)CC(=O)N(C)[C@@H](CC(C)C)C(=O)N[C@@H]([C@@H](C)CC)C1=O [PP0750] ([NMeL]I[Gly(N-propargyl)][Sar][NPrPhe(4-CF3)][Sar][hPhe(3-Cl-4-CF3)]P[Ac5c][NMeGly(cPent)][NMeD]-Morpholide; lactam N-11) | C (A compound having a KD ratio of 0.1 or more and less than 3 is denoted as C) | B (a compound having 3 or more and less than 10 is denoted as B)
12 | CCCN1C(=O)CN(C)C(=O)CN(CCF)C(=O)[C@H]([C@@H](C)CC)NC(=O)[C@H](CC(C)C)N(C)C(=O)C[C@@H](C(=O)N2CCOCC2)N(C)C(=O)[C@H](C2CCCC2)N(C)C(=O)C2(CCCC2)NC(=O)[C@@H]2CCCN2C(=O)[C@H](CCc2ccc(C(F)(F)F)c(Cl)c2)NC(=O)CN(C)C(=O)[C@@H]1Cc1ccc(C(F)(F)F)cc1 [PP0751] ([NMeL]I[X51][Sar][NPrPhe(4-CF3)][Sar][hPhe(3-Cl-4-CF3)]P[Ac5c][NMeGly(cPent)][NMeD]-Morpholide; lactam N-11) | C (A compound having a KD ratio of 0.1 or more and less than 3 is denoted as C) | B (a compound having 3 or more and less than 10 is denoted as B)
